The structures appear in SMILES notation. In brackets after ≈: the same amount, converted by molar mass.

In data set [1] the target is Envelope glycoprotein gp160 (Human immunodeficiency virus 1, UniProt Q6QLK5). The data set is described as follows: Binding affinity to HIV1 cYTA48P envelope glycoprotein gp120 infected in human TZM-b1 cells assessed as induction of conformational changes measured after 48 hrs. In kind it is cell-based.
Data set [2] can be described thus: Cytotoxicity against human TZM-b1 cells assessed as reduction in cell viability by CCK8 assay. The data set is classed as cell-based. (Formazan colour is commonly taken as a measure of viable cells.)
A short description of data set [3]: Aqueous solubility of the compound in phosphate buffered saline. In kind it is physicochemical.
For data set [4], the target named is Envelope glycoprotein gp160 (Human immunodeficiency virus 1) (UniProt Q6QLK5). The data set is described as follows: Binding affinity to HIV1 cYTA48P envelope glycoprotein gp120 infected in human TZM-b1 cells assessed as induction of conformational changes by measuring combination index at 450:1 ratio of test compound to KD-247 measured after 48 hrs. The data set is classed as cell-based.
Sequence of Envelope glycoprotein gp160 (Human immunodeficiency virus 1) (Q6QLK5 1-814): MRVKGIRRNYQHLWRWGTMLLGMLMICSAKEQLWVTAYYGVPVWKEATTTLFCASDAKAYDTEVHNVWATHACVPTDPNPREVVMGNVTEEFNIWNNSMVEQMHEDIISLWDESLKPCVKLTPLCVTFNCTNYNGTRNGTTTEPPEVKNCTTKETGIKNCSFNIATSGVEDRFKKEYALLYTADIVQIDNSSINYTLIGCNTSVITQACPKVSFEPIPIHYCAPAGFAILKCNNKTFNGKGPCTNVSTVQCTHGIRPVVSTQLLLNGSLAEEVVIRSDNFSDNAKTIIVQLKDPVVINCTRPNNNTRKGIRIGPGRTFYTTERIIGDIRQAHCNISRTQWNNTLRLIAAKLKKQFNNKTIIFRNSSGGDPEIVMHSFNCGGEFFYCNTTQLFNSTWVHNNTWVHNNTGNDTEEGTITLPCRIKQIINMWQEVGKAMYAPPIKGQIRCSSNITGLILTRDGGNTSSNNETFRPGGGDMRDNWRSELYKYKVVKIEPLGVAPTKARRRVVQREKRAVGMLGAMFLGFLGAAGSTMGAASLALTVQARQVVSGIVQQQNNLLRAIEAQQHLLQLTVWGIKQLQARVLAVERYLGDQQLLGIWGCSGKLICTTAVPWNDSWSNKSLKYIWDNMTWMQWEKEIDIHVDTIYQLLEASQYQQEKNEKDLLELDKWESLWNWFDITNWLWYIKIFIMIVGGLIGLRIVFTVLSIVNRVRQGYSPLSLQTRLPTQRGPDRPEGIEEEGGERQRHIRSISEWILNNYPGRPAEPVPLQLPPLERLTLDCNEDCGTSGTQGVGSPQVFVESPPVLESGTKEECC

Data set [5] shares this target. The data set is described as follows: Binding affinity to HIV1 cYTA48P envelope glycoprotein gp120 infected in human TZM-b1 cells assessed as induction of conformational changes by measuring combination index at 15:1 ratio of test compound to KD-247 measured after 48 hrs. In kind it is cell-based.

Sequence of Envelope glycoprotein gp160 (Q6QLK5 whole entry): as the sequence (Q6QLK5 1-814) above

For `CC1(C)CC(NC(=O)C(=O)Nc2cnc(F)c(F)c2)CC(C)(C)N1`, the half-inhibitory concentration (IC50) in data set [1] was found to be 7.6 µM. Also, in data set [2], the CC50 is above 300 µM.
For `CC1(C)CC(NC(=O)C(=O)Nc2ccc(F)cn2)CC(C)(C)N1` the same measures were 59 µM and above 300 µM.
The matching figures for `CC1(C)CC(NC(=O)C(=O)Nc2ccc(C(F)(F)F)cn2)CC(C)(C)N1`: 46 µM and above 300 µM.
Regarding `CC1(C)CC(NC(=O)C(=O)Nc2ccc(F)nc2)CC(C)(C)N1`, in data set [1], the IC50 was determined as 2.1 µM. Moreover, the solubility in data set [3] stood at 6.67 mM (≈ 2150 µg/mL). Moreover, the half-maximal cytotoxic concentration (CC50) in data set [2] is above 300 µM. For the same compound, the CI in data set [4] is 0.34.
Take `CC1(C)CC(NC(=O)C(=O)Nc2ccnc(F)c2)CC(C)(C)N1`: the IC50 in data set [1] was determined as 63 µM. Also, the CC50 in data set [2] was above 300 µM.
As to `CC1(C)CC(NC(=O)C(=O)Nc2ccc(Cl)cc2)CC(C)(C)N1`, in data set [1], the IC50 was 0.17 µM. Also, the solubility in data set [3] was found to be 1.39 mM (≈ 470 µg/mL). Moreover, the CI in data set [5] turned out to be 0.52. For the same compound, the cytotoxic concentration (CC50) in data set [2] was found to be 116 µM.
For the compound `CC1(C)CC(NC(=O)C(=O)Nc2cccnc2Cl)CC(C)(C)N1`, the half-inhibitory concentration (IC50) in data set [1] was above 100 µM. Besides, in data set [2], the CC50 was above 300 µM.
The matching figures for `O=C(Nc1ccc(F)nc1)C(=O)NC1CCNC2(CCCCC2)C1` (centres undefined): 0.46 µM and above 300 µM.
The matching figures for `O=C1Nc2ccc(Cl)cc2[C@@](C#CC2CC2)(C(F)(F)F)O1` [EFAVIRENZ]: 0.0035 µM and 20 µM.
The matching figures for `CC1(C)CC(NC(=O)C(=O)Nc2ccc(Br)cn2)CC(C)(C)N1`: 42 µM and 71 µM.
For the compound `CC1(C)CC(NC(=O)C(=O)Nc2ccc(I)cn2)CC(C)(C)N1`, the IC50 in data set [1] was determined as 68 µM. Further, the 50% cytotoxic concentration (CC50) in data set [2] was 205 µM.
For `CC1(C)CC(NC(=O)C(=O)Nc2ccncc2)CC(C)(C)N1` the same measures were above 100 µM and above 300 µM.
For `CC1(C)CC(NC(=O)C(=O)Nc2cccnc2)CC(C)(C)N1` the same measures were above 100 µM and above 300 µM.
For `O=C(Nc1ccc(Br)nc1)C(=O)NC1CCNC2(CCCCC2)C1` (centres undefined) the same measures were 1.2 µM and 180 µM.
For `COc1ccc(NC(=O)C(=O)NC2CC(C)(C)NC(C)(C)C2)cn1`, the IC50 in data set [1] stood at 27 µM. Further, in data set [2], the half-maximal cytotoxic concentration (CC50) was above 300 µM.
For `CC1(C)CC(NC(=O)C(=O)Nc2ccc(Cl)cn2)CC(C)(C)N1` the same measures were 61 µM and above 300 µM.
In the case of `Cc1cccc(NC(=O)C(=O)NC2CC(C)(C)NC(C)(C)C2)n1`, in data set [1], the IC50 is above 100 µM. In addition, in data set [2], the CC50 is 257 µM.
Consider `CC1(C)CC(NC(=O)C(=O)Nc2ccnc(Cl)c2)CC(C)(C)N1`, for which the IC50 in data set [1] came out at 2.3 µM. For the same compound, the 50% cytotoxic concentration (CC50) in data set [2] was above 300 µM. Moreover, the CI in data set [4] was 0.2.
The matching figures for `CC1(C)CC(NC(=O)C(=O)Nc2ccnc(Br)c2)CC(C)(C)N1`: 3.6 µM, 295 µM and 0.16.
On to `CC1(C)CC(NC(=O)C(=O)Nc2ccc(Cl)nc2)CC(C)(C)N1`, for which, in data set [1], the IC50 is 4 µM. The CC50 in data set [2] is above 300 µM.
As for `CC1(C)CC(NC(=O)C(=O)Nc2ccc(Br)nc2)CC(C)(C)N1`, the IC50 in data set [1] came to 1.2 µM. The same compound gave a solubility in data set [3] of 3.62 mM (≈ 1390 µg/mL). In data set [2], the 50% cytotoxic concentration (CC50) was above 300 µM.

A word on the IC50: it is the concentration at which inhibition is half-maximal. As a reminder, the CC50 is the concentration at which the toxic effect on the cells reaches its halfway point. For orientation: solubility means the dissolved amount per volume that the medium holds.

The values are drawn from ChEMBL document CHEMBL4422649, “Soluble-type small-molecule CD4 mimics as HIV entry inhibitors” (Bioorg Med Chem Lett, 2019).
